Measurements taken from patent US20250302798A1, “STING INHIBITORS AND USE THEREOF” (CARMEL HAIFA UNIVERSITY ECONOMIC CORPORATION LTD., priority 2022, published 2025).
Entries after “also recorded” stand apart in the source; their conditions may differ.

Columns and labels:
[1] = tested on: LPS-activated splenocytes; test: Cytokine secretion (ELISA) from LPS-activated splenocytes; format: cell-based, C57BL/6 mice; conditions: for LPS-induced cytokine secretion / IFN-beta secretion / IL-10 secretion / TNFα secretion: 5,000 nM + LPS 1 μg/ml; for IFN-beta secretion / IL-10 secretion / TNFα secretion: overnight
Protocol: FIGS. 4A-4C include vertical bar graphs showing that compounds 5.9 and 7.9 inhibit TNFα but promote IL-10 and IFN-beta secretion from lipopolysaccharides (LPS)-activated splenocytes. Splenocytes were recovered from C57BL/6 WT female mice and incubated (1×10^6 cells in 0.5 mL of culture media) overnight with the individual compounds from cluster 9 (5,000 nM) or vehicle and LPS (1 μg/ml). Next, culture supernatants were collected and TNFα (4A), IL-10 (4B), or IFN-beta (4C) levels were determined by standard ELISA.
STING was previously shown to be essential for LPS-induced IRF3 activation and IFN-β production. Therefore, further examination of whether the putative STING antagonists affect LPS-induced cytokine production was carried out.

[2] = target: T1, STING (Mus musculus, UniProt Q3TBT3); test: Cytokine secretion (ELISA) from splenocytes without DMXAA; format: cell-based, C57BL/6 mice; parameters: Splenocytes were recovered from C57BL/6 WT female mice; endogenous in cells; host or cells: primary splenocytes of C57BL/6 mice; conditions: 5,000 nM
T1 sequence (Q3TBT3 1-378): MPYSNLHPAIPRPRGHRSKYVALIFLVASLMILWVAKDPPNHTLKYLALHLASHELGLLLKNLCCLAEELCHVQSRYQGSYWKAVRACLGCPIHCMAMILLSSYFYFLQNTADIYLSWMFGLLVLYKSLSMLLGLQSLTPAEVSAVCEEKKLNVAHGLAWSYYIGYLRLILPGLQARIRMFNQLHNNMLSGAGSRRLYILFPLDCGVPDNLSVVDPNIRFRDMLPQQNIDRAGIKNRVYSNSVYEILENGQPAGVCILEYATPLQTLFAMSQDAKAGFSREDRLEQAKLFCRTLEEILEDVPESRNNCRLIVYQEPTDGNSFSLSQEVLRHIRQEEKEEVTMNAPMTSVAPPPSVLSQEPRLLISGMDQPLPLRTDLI
Protocol: (§1) FIGS. 2A-2D include graphs showing that compounds 5.9 and 7.9 inhibit TNFα and IL-10 secretion from DMXAA-activated splenocytes. Splenocytes were recovered from C57BL/6 WT female mice and incubated (1×10^6 cells in 0.5 mL of culture media) overnight with the individual compounds from cluster 9 (50-5,000 nM) or vehicle and DMXAA (5-10 μM; 2A-2B) or at 5,000 nM without DMXAA (2C-2D). Next, culture supernatants were collected and TNFα (2A, and 2C) or IL-10 (2B, and 2D) levels were determined by standard ELISA. In 2A-2B, black horizontal line indicates secretion level from vehicle-treated cells.
FIGS. 3A-3H include graphs and an image showing that compounds 2.1, 4.1, and 6.1 inhibit TNFα but promote IL-10 and IFN-beta secretion from DMXAA-activated splenocytes. […] Next, culture supernatants were collected and TNFα (3A-3B), IL-10 (3C-3D), or IFN-beta (3E-3F) levels were determined by standard ELISA. […] Then, the cells were analyzed by immunoblotting for phosphorylated STING, TBK-1, IRF3, and NF-kB, or their unphosphorylated controls, or actin as a loading control. […]
Splenocytes were isolated from the spleens of unchallenged C57BL/6 WT or STING-KO mice by meshing against a grid. […] After 24 hr, culture supernatants were collected and evaluated for levels of: TNFα, IFN-β and/or IL-10 using, standard ELISA (BioLegend, CA, USA). […]

[3] = target: T1, STING; test: Cytokine secretion (ELISA) from DMXAA-activated splenocytes; format: cell-based, C57BL/6 mice; parameters: Splenocytes were recovered from C57BL/6 WT female mice; endogenous in cells; host or cells: primary splenocytes of C57BL/6 mice; conditions: for STING inhibition (ranking): at 5,000 nM, resting splenocytes; for Mode of action on STING (overall): summary over various cell types, DMXAA stimulation
Protocol: FIGS. 1A-1B include bar graphs showing that Cluster 1 and 9 inhibit tumor necrosis factor alpha (TNFα) while only cluster 1 promotes IL-10 secretion from resting splenocytes activated by the selective STING agonist DMXAA. Splenocytes were recovered from C57BL/6 WT or STING^−/− female mice and were incubated (1×10^6 cells in 0.5 mL of culture media) overnight with a premade mixture of the individual compounds in each cluster (5-500 nM) or vehicle, and DMXAA (10 μM). Next, culture supernatants were collected and TNFα(1A) or IL-10 (1B) levels were determined by standard enzyme-linked immunosorbent assay ELISA (Biolegend).
as §1
FIGS. 3A-3H include graphs and an image showing that compounds 2.1, 4.1, and 6.1 inhibit TNFα but promote IL-10 and IFN-beta secretion from DMXAA-activated splenocytes. Splenocytes were recovered from C57BL/6 WT female mice and incubated (1×10^6 cells in 0.5 mL of culture media) overnight with the individual compounds from cluster 1 (50-5,000 nM) or vehicle and DMXAA (10 μM; 3A, 3C, and 3E) or at 5,000 nM without DMXAA (3B, 3D, and 3F). Next, culture supernatants were collected and TNFα (3A-3B), IL-10 (3C-3D), or IFN-beta (3E-3F) levels were determined by standard ELISA. In 3A, 3C, and 3E, black horizontal line indicates secretion level from vehicle-treated cells. (3G-3H) Biased STING agonists (BiSTs) enhance DMXAA-induced STING signaling. Splenocytes were treated with 25 μg/ml DMXAA and 50 nM of compound 2.1 for 1-4 hr (3G). Then, the cells were analyzed by immunoblotting for phosphorylated STING, TBK-1, IRF3, and NF-kB, or their unphosphorylated controls, or actin as a loading control. Densitometry analysis for phosphorylated STING (p-STING) and STING proteins (3H) is also shown. Results are representative (3G) or mean±SEM (3H) from 3 repeats. One-way ANOVA, and Tukey HSD test *P<0.05.
(§2) Splenocytes were isolated from the spleens of unchallenged C57BL/6 WT or STING-KO mice by meshing against a grid. Peritoneal macrophages were isolated from mice undergoing peritonitis for 66 hr by washing with 5 ml PBS. The cellular exudate was stained with phycoerythrin (PE)-conjugated anti-F4/80 antibodies (bioLegend, CA, USA) and macrophages were isolated using magnetic beads (STEMCELL Technologies Inc, Vancouver, Canada). Isolated splenocytes or macrophages (0.5-1×10^6 cells per well) were incubated with 50-5,000 nM of individual substances or pooled clusters thereof. Then, the cells were treated with vehicle or 5-10 μM DMXAA (Cayman Chemical, MI, USA) to activate STING. After 24 hr, culture supernatants were collected and evaluated for levels of: TNFα, IFN-β and/or IL-10 using, standard ELISA (BioLegend, CA, USA).
To test which cluster(s) included compounds that modulate STING-mediated cytokine production, wild-type (WT) or STING knockout (−/−) splenocytes were incubated with the selective murine STING agonist DMXAA alone or with 5-500 nM of the pooled individual compounds in each cluster as indicated.
Next, the individual compounds in clusters 1 and 9 were tested at 50-5,000 nM. The first experiment was performed in resting splenocytes as detailed above.

[4] = target: T1, STING; test: Cytokine secretion (ELISA) from DMXAA-activated resolution phase macrophages (zymosan A peritonitis); format: cell-based, mice; parameters: Mice were injected with zymosan A (1 mg/mouse), and peritoneal cells thereof were recovered after 66 hrs; endogenous in cells; host or cells: F4/80+ peritoneal exudate macrophages from mice with zymosan A peritonitis; conditions: for TNFα induced by DMXAA: at 5000 nM; for IL-10 secretion / TNFα secretion: individual compounds 50-5,000 nM + DMXAA 5-10 μM; for Mode of action in resolution phase macrophages: summary heading
Protocol: Mice were injected with zymosan A (1 mg/mouse), and peritoneal cells thereof were recovered after 66 hrs. Exudate macrophages were isolated and incubated (1×10^6 cells in 0.5 mL of culture media) overnight with a premade mixture of the individual compounds in clusters 1 and 9 (5,000 nM; 5A and 5C), or the individual compounds (500-5,000 nM), or vehicle and DMXAA (5-10 μM). Next, culture supernatants were collected and TNFα (5A-5B) or IL-10 (5C-5D) levels were determined by standard ELISA (Biolegend).
as §2
To use a more physiological setting, macrophages were isolated from zymosan A-induced peritonitis and treated with the compounds alone (5,000 nM) or compounds (50-5,000 nM) with DMXAA, or DMXAA alone.

[5] = individual compounds 50-5,000 nM + DMXAA 5-10 μM, overnight

In the case of `CCOC(=O)N1CCC(NCc2cc3ccc(Cl)cc3n(CCOc3ccccc3)c2=O)CC1` [Compound 6.9, ethyl 4-({[7-chloro-2-oxo-1-(2-phenoxyethyl)-1,2-dihydro-3-quinolinyl]methyl}amino)-1-piperidinecarboxylate], the LPS-induced cytokine secretion [1] is reported as “much milder effects”.

In the case of `Cc1ccc2c(-c3cc4c(n(CC5CC5)c3=O)CCN(C(=O)C3=NN(C)C(=O)CC3)C4)cccc2n1` [Compound 5.9, 1-(cyclopropylmethyl)-6-[(1-methyl-6-oxo-1,4,5,6-tetrahydro-3-pyridazinyl)carbonyl]-3-(2-methyl-5-quinolinyl)-5,6,7,8-tetrahydro-1,6-naphthyridin-2(1H)-one], the TNFα secretion ([2]; absence of DMXAA stimulation) is reported as “inhibited”, the IFN-beta secretion [1] is reported as “enhances; also recorded: significant upregulation; also recorded: promote” and the IL-10 secretion [1] is reported as “enhances; also recorded: significant upregulation; also recorded: promote”. The TNFα secretion [1] was “not and reducing and inhibiting and inhibit”, the “Mode of action in LPS-stimulated splenocytes” value ([1]; summary statement) was “biased agonist” and the “STING inhibition (ranking)” value [3] was “Best STING Inhibitors”. The IL-10 secretion [3, 5] was “inhibit”, the TNFα secretion [3, 5] was “doing so at lower concentrations; also recorded: best inhibitor; also recorded: inhibit” and the “Mode of action on STING (overall)” value [3] was “very efficient STING inhibitors”. The “IL-10 induced by DMXAA” value ([4]; at 5,000 nM) was “enhanced” and the “TNFα induced by DMXAA” value [4] was “enhanced”.

In the case of `O=C(CCc1c[nH]c2ccccc12)N1CCOc2ccc(CN3CCN(c4ccccn4)CC3)cc2C1` [Compound 7.9, 4-[3-(1H-indol-3-yl)propanoyl]-7-{[4-(2-pyridinyl)-1-piperazinyl]methyl}-2,3,4,5-tetrahydro-1,4-benzoxazepine], the LPS-induced cytokine secretion [1] is reported as “much milder effects”, the IFN-beta secretion [1] is reported as “promote” and the IL-10 secretion [1] is reported as “promote”. For the same compound, the TNFα secretion [1] was “inhibit”, the IL-10 secretion [3, 5] was “inhibit” and the TNFα secretion [3, 5] was “inhibit”. For the same compound, the “Mode of action on STING (overall)” value [3] was “very efficient STING inhibitors”, the IL-10 secretion [4] was “best inhibitor; also recorded: inhibits” and the TNFα secretion [4] was “best inhibitor; also recorded: inhibits”. For the same compound, the “Mode of action in resolution phase macrophages” value [4] was “Very Efficient STING Inhibitor”.

`COCC(=O)N(C)C(Cc1ccc(F)cc1)C1CCN(C(=O)c2ccc(-c3ccccc3)cc2)CC1` (stereo not shown) [Compound 3.1, N-[1-[1-(4-biphenylylcarbonyl)-4-piperidinyl]-2-(4-fluorophenyl)ethyl]-2-methoxy-N-methylacetamide] was tested, and the TNFα secretion [4] was “enhanced TNFα only”.

In the case of `Cc1ccc(C(=O)Nc2cnn(-c3ccc(C(=O)N4CCC(c5ccc(F)cc5)C4)cc3)c2)c(C)c1` (stereo not shown) [Compound 6.1, N-[1-(4-{[3-(4-fluorophenyl)-1-pyrrolidinyl]carbonyl}phenyl)-1H-pyrazol-4-yl]-2,4-dimethylbenzamide], the “STING inhibition (ranking)” value [3] is reported as “Best STING Inhibitors”, the TNFα secretion [3, 5] is reported as “doing so at lower concentrations; also recorded: inhibit” and the “Mode of action on STING (overall)” value [3] is reported as “biased agonists”. The “IL-10 induced by DMXAA” value ([4]; at 5,000 nM) was “enhanced” and the “TNFα induced by DMXAA” value [4] was “enhanced”.

For `c1ccc(-n2cccc2CN(Cc2cccnc2)Cc2ccc3c(c2)OCO3)nc1` [Compound 4.1, (1,3-benzodioxol-5-ylmethyl)(pyridin-3-ylmethyl)[(1-pyridin-2-yl-1H-pyrrol-2-yl)methyl]amine], the IL-10 secretion ([2]; without DMXAA) was “only compound that induced IL-10; also recorded: induces”, the IFN-beta secretion ([3]; individual compounds 50-5,000 nM + DMXAA 10 μM, overnight) was “promote” and the IL-10 secretion [3, 5] was “induced IL-10 at all concentrations; also recorded: promote”. For the same compound, the TNFα secretion [3, 5] was “inhibit”, the IL-10 secretion ([3]; individual compounds at 5,000 nM + DMXAA) was “induces” and the “Mode of action on STING (overall)” value [3] was “biased agonists; also recorded: most efficient biased agonist”. The “IL-10 induced by DMXAA” value ([4]; at 500 nM) was “enhanced”, the “IL-10 induced by DMXAA” value ([4]; at 5,000 nM) was “not” and the IL-10 secretion [4] was “selective inducer”. For the same compound, the “Mode of action in resolution phase macrophages” value [4] was “Biased Antagonist for TNFα”.

For `COc1ccccc1CCN1CCCC(CN(C)C(=O)Cc2cn(C)c3ccccc23)C1` (stereo not shown) [Compound 4.9], the “STING inhibition (ranking)” value [3] was “Best STING Inhibitors” and the TNFα secretion [3, 5] was “doing so at lower concentrations”.
